Test results published in patent publication US10047051B2, “Substituted pyridines and method of use” (AbbVie S.á{acute over (.)}r.l., priority 2015, dated 2018).

Columns and labels:
CFTR ΔF508 mutant = biological target: T1, CFTR ΔF508 mutant (Homo sapiens, UniProt P13569, DEL508-508); assay: YFP-halide influx assay for the CFTR-ΔF508 mutation (CFBE41o- cells); type: cell-based; details: forskolin 10.67 μM; for EC50: from (1−F/F0) vs concentration plot
T1 construct: expressed in transfected cells; host or cells: CFBE41o- cells, adenoviral transduction
Procedure, shortened: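 CFBE41o- cells transduced with adenovirus expressing CFTR ΔF508 and halide-sensitive YFP H148Q/I152L/F47L, then held 24 h at 27° C or with a CFTR modulator 24 h at 37° C. Iodide-induced quench recorded 2 min; EC50 from (1−F/F0) at 36 s versus concentration.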

CFTR G551D mutant = biological target: T2, CFTR G551D mutant (Homo sapiens, UniProt P13569, G551D); assay: YFP-halide influx assay for the CFTR-G551D mutation (HEK293 cells); type: cell-based; details: forskolin 10.67 μM
T2 construct: expressed in transfected cells; host or cells: HEK293 cells, reverse transfection with plasmids
Procedure, shortened: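 HEK293 cells reverse-transfected with CFTR G551D and halide-sensitive YFP (H148Q/I152L/F47L), expressed 24 h at 37 °C. YFP fluorescence quenching recorded for 7 s after I⁻ injection. Response = 1−F/F0; EC50 derived from 1−F/F0 vs compound concentration.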

T1 sequence (P13569 with tags, fused parts or gaps DEL508-508): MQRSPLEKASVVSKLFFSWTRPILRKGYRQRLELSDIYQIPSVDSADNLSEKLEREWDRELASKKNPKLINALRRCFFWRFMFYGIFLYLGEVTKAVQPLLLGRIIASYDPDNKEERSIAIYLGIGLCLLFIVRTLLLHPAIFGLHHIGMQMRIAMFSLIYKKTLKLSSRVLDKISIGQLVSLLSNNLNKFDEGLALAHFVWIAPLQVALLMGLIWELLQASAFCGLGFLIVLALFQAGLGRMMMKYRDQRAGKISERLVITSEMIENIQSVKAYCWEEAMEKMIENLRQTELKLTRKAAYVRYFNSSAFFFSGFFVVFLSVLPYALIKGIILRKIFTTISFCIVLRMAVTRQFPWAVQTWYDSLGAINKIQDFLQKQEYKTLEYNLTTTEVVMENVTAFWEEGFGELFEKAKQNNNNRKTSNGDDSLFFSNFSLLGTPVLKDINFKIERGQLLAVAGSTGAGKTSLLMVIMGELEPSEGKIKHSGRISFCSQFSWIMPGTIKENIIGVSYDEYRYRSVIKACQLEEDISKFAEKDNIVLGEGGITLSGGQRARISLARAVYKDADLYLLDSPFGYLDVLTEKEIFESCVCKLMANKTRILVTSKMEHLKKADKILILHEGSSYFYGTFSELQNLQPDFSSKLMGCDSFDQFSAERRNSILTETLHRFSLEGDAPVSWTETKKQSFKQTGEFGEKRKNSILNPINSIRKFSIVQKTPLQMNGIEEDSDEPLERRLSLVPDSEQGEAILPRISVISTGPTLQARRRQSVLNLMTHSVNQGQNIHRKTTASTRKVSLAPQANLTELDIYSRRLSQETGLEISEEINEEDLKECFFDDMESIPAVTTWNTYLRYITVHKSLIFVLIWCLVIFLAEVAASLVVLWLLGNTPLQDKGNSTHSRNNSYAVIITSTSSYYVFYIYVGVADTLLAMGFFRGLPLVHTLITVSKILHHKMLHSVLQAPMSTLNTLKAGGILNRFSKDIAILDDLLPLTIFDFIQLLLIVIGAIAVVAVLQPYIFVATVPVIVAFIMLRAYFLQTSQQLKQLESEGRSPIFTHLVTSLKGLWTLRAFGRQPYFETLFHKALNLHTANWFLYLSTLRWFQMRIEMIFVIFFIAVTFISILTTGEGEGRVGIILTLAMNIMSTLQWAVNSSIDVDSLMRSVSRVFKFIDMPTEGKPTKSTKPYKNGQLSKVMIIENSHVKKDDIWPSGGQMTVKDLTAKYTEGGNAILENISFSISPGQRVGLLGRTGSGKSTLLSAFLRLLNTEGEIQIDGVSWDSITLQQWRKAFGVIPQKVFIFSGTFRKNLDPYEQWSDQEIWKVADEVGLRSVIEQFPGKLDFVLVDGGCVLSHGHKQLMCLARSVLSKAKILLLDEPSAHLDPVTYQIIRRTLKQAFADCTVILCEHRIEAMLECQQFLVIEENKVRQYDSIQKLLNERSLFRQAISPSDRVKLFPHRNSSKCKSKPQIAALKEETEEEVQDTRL
T2 sequence (P13569 whole entry G551D): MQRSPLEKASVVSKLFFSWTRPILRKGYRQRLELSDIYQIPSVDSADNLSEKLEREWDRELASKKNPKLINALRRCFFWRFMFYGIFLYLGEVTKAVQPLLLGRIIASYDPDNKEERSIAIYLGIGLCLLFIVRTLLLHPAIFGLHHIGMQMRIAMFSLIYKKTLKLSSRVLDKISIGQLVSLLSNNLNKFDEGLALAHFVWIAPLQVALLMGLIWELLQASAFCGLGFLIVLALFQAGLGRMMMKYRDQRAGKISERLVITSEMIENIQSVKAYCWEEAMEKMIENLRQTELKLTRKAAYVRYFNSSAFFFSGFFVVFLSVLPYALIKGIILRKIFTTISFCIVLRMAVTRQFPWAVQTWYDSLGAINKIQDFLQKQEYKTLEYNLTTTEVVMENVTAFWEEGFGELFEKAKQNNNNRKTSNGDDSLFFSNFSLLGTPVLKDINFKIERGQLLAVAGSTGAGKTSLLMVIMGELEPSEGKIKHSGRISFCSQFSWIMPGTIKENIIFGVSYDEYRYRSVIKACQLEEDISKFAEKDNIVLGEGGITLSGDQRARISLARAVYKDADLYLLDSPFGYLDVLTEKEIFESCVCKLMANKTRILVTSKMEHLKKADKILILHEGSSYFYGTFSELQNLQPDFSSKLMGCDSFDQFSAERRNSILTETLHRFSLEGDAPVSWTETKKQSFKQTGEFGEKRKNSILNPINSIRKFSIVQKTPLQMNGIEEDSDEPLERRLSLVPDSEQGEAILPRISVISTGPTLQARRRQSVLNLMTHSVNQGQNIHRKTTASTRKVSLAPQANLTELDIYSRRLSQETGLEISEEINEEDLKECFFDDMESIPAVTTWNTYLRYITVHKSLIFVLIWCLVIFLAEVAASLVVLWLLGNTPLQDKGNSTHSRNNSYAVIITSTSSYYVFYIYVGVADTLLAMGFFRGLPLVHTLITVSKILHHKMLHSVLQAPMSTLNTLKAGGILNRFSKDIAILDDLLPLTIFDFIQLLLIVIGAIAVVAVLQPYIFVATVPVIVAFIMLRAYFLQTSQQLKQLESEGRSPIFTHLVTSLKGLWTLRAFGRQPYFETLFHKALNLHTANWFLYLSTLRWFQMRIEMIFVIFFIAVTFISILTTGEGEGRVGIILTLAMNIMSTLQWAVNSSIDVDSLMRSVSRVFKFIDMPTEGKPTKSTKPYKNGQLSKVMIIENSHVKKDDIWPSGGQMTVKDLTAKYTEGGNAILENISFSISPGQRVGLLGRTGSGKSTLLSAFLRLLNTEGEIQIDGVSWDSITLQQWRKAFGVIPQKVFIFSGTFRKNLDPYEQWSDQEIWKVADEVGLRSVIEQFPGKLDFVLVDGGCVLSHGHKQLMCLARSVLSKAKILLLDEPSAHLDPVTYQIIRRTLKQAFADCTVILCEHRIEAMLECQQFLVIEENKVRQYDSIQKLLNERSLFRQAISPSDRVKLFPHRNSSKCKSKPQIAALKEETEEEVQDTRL

Structure (SMILES)	% Activation (CFTR ΔF508 mutant) [%]	EC50 (CFTR ΔF508 mutant) [nM]	% Activation (CFTR G551D mutant) [%]	EC50 (CFTR G551D mutant) [nM]
Nc1cc(S(=O)(=O)c2ccc(OC(F)(F)F)cc2)cnc1C(=O)N1CCC(F)(F)C1 [Compound 203, (3-amino-5-{[4-(trifluoromethoxy)phenyl]sulfonyl}pyridin-2-yl)(3,3-difluoropyrrolidin-1-yl)methanone]	92.6	47.3	57.3	1270
Nc1cc(S(=O)(=O)c2ccc(OC(F)(F)F)cc2)cnc1C(=O)N1CC[C@@H](F)C1 [Compound 204, (3-amino-5-{[4-(trifluoromethoxy)phenyl]sulfonyl}pyridin-2-yl)[(3R)-3-fluoropyrrolidin-1-yl]methanone]	92.5	177	73.9	> 3330
Nc1cc(S(=O)(=O)c2ccc(C(F)(F)F)cc2)cnc1C(=O)N[C@@H]1CCC[C@@H]1O [Compound 205, 3-amino-N-[(1R,2S)-2-hydroxycyclopentyl]-5-{[4-(trifluoromethyl)phenyl]sulfonyl}pyridine-2-carboxamide]	96.5	59.9	37.6	–
Nc1cc(S(=O)(=O)c2ccc(OC(F)(F)F)cc2)cnc1C(=O)N1CC[C@H](F)C1 [Compound 206, (3-amino-5-{[4-(trifluoromethoxy)phenyl]sulfonyl}pyridin-2-yl)[(3S)-3-fluoropyrrolidin-1-yl]methanone]	103.0	74.8	90.3	3150
CN1CC[C@H](NC(=O)c2ncc(S(=O)(=O)c3ccc(OC(F)(F)F)cc3)cc2N)C1 [Compound 207, 3-amino-N-[(3S)-1-methylpyrrolidin-3-yl]-5-{[4-(trifluoromethoxy)phenyl]sulfonyl}pyridine-2-carboxamide]	78.0	> 667	15.0	> 10000
CN1CC[C@@H](NC(=O)c2ncc(S(=O)(=O)c3ccc(OC(F)(F)F)cc3)cc2N)C1 [Compound 208, 3-amino-N-[(3R)-1-methylpyrrolidin-3-yl]-5-{[4-(trifluoromethoxy)phenyl]sulfonyl}pyridine-2-carboxamide]	70.5	290	20.0	> 10000
Nc1cc(S(=O)(=O)c2ccc(C(F)(F)F)cc2)cnc1C(=O)NCC(F)(F)F [Compound 209, 3-amino-N-(2,2,2-trifluoroethyl)-5-{[4-(trifluoromethyl)phenyl]sulfonyl}pyridine-2-carboxamide]	93.8	36.2	39.3	> 10000
CN1CC(NC(=O)c2ncc(S(=O)(=O)c3ccc(OC(F)(F)F)cc3)cc2N)C1 [Compound 210, 3-amino-N-(1-methylazetidin-3-yl)-5-{[4-(trifluoromethoxy)phenyl]sulfonyl}pyridine-2-carboxamide]	44.6	> 667	5.8	> 10000
CN(Cc1ccc(C(F)(F)F)cc1)S(=O)(=O)c1cnc(C(=O)NCC(O)C(F)(F)F)c(N)c1 (stereo not shown) [Compound 211, 3-amino-5-{methyl[4-(trifluoromethyl)benzyl]sulfamoyl}-N-(3,3,3-trifluoro-2-hydroxypropyl)pyridine-2-carboxamide]	98.4	24.7	24.0	–
Nc1cc(S(=O)(=O)c2ccc(C(F)(F)F)cc2)cnc1C(=O)NCCC(F)(F)F [Compound 212, 3-amino-5-{[4-(trifluoromethyl)phenyl]sulfonyl}-N-(3,3,3-trifluoropropyl)pyridine-2-carboxamide]	96.7	47.1	33.0	–
Nc1cc(S(=O)(=O)c2ccc(C(F)(F)F)cc2F)cnc1C(=O)NCC(O)COCC(F)(F)F (stereo not shown) [Compound 213, 3-amino-5-{[2-fluoro-4-(trifluoromethyl)phenyl]sulfonyl}-N-[2-hydroxy-3-(2,2,2-trifluoroethoxy)propyl]pyridine-2-carboxamide]	115.3	6	71.0	414
Nc1cc(S(=O)(=O)c2ccc(OC(F)(F)F)cc2)cnc1C(=O)NC1(C(F)(F)F)COC1 [Compound 214, 3-amino-5-{[4-(trifluoromethoxy)phenyl]sulfonyl}-N-[3-(trifluoromethyl)oxetan-3-yl]pyridine-2-carboxamide]	60.5	> 667	39.1	> 10000
Nc1cc(S(=O)(=O)c2ccc(C(F)(F)F)cc2)cnc1C(=O)N[C@H]1CCC[C@@H]1O [Compound 215, 3-amino-N-[(1S,2S)-2-hydroxycyclopentyl]-5-{[4-(trifluoromethyl)phenyl]sulfonyl}pyridine-2-carboxamide]	109.8	8.9	57.6	389
Nc1cc(S(=O)(=O)c2ccc(C(F)(F)F)cc2F)cnc1C(=O)NCCO [Compound 219, 3-amino-5-{[2-fluoro-4-(trifluoromethyl)phenyl]sulfonyl}-N-(2-hydroxyethyl)pyridine-2-carboxamide]	99.8	19.2	44.7	1050
COc1ccc(S(=O)(=O)c2cnc(C(=O)NCC(O)C(F)(F)F)c(N)c2)cc1 (stereo not shown) [Compound 220, 3-amino-5-[(4-methoxyphenyl)sulfonyl]-N-(3,3,3-trifluoro-2-hydroxypropyl)pyridine-2-carboxamide]	102.0	16.9	71.6	791
COCCOCC(O)CNC(=O)c1ncc(S(=O)(=O)c2ccc(C(F)(F)F)cc2)cc1N (stereo not shown) [Compound 221, 3-amino-N-[2-hydroxy-3-(2-methoxyethoxy)propyl]-5-{[4-(trifluoromethyl)phenyl]sulfonyl}pyridine-2-carboxamide]	101.7	54.5	55.6	1840
COCCCNC(=O)c1ncc(S(=O)(=O)c2ccc(C(F)(F)F)cc2)cc1N [Compound 222, 3-amino-N-(3-methoxypropyl)-5-{[4-(trifluoromethyl)phenyl]sulfonyl}pyridine-2-carboxamide]	108.7	40.8	48.4	816
Nc1cc(S(=O)(=O)c2ccc(C(F)(F)F)cc2)cnc1C(=O)NCC1CC1 [Compound 223, 3-amino-N-(cyclopropylmethyl)-5-{[4-(trifluoromethyl)phenyl]sulfonyl}pyridine-2-carboxamide]	96.4	49	19.0	> 10000
CC(C)(C)OCC(O)CNC(=O)c1ncc(S(=O)(=O)c2ccc(C(F)(F)F)cc2F)cc1N (stereo not shown) [Compound 224, 3-amino-N-(3-tert-butoxy-2-hydroxypropyl)-5-{[2-fluoro-4-(trifluoromethyl)phenyl]sulfonyl}pyridine-2-carboxamide]	106.0	8.1	80.6	276
CN(CCC(F)(F)F)S(=O)(=O)c1cnc(C(=O)NCC(O)C(F)(F)F)c(N)c1 (stereo not shown) [Compound 225, 3-amino-5-[methyl(3,3,3-trifluoropropyl)sulfamoyl]-N-(3,3,3-trifluoro-2-hydroxypropyl)pyridine-2-carboxamide]	106.7	30.9	44.2	2210
Nc1cc(S(=O)(=O)c2ccc(C(F)(F)F)cc2)cnc1C(=O)N1CCC[C@H]1CO [Compound 226, (3-amino-5-{[4-(trifluoromethyl)phenyl]sulfonyl}pyridin-2-yl)[(2S)-2-(hydroxymethyl)pyrrolidin-1-yl]methanone]	11.9	> 2000	1.4	> 10000
CC(C)(CO)NC(=O)c1ncc(S(=O)(=O)c2ccc(C(F)(F)F)cc2)cc1N [Compound 227, 3-amino-N-(1-hydroxy-2-methylpropan-2-yl)-5-{[4-(trifluoromethyl)phenyl]sulfonyl}pyridine-2-carboxamide]	81.0	> 667	28.1	> 10000
Nc1cc(S(=O)(=O)c2ccc(C(F)(F)F)cc2)cnc1C(=O)NCC1(O)CC1 [Compound 228, 3-amino-N-[(1-hydroxycyclopropyl)methyl]-5-{[4-(trifluoromethyl)phenyl]sulfonyl}pyridine-2-carboxamide]	123.3	8.5	62.6	1040
Nc1cc(S(=O)(=O)c2ccc(C(F)(F)F)cc2)cnc1C(=O)N1C[C@@H](O)[C@H](O)C1 [Compound 229, (3-amino-5-{[4-(trifluoromethyl)phenyl]sulfonyl}pyridin-2-yl) [(3R,4R)-3,4-dihydroxypyrrolidin-1-yl]methanone]	24.0	> 2000	1.0	> 10000
CN1CCC(O)(CNC(=O)c2ncc(S(=O)(=O)c3ccc(C(F)(F)F)cc3)cc2N)CC1 [Compound 230, 3-amino-N-[(4-hydroxy-1-methylpiperidin-4-yl)methyl]-5-{[4-(trifluoromethyl)phenyl]sulfonyl}pyridine-2-carboxamide]	12.4	> 2000	1.5	> 10000
